Experiments:
[1] = system: subjects undergoing embryo transfer therapy; assay: Phase 2 clinical study: pregnancy and live birth after embryo transfer; type: in vivo, human
Text: A total of 247 female subjects were selected for treatment based on a variety of inclusion criteria. Of these, 244 subjects completed the study. The study was open to healthy female volunteers from 18 to 36 years of age that had previously undergone up to one IVF or ICSI cycle that resulting in a negative pregnancy test as assessed by hCG detection, despite the transfer of at least one embryo of good quality, which was defined as an embryo having from six to eight blastomeres of uniform size and shape on the day of embryo transfer, ooplasm having no granularity, absence of multinucleation, and a maximum fragmentation of 10%. Subjects included in the study had at least one functional ovary and were capable of communicating with the investigator and research staff and complying with the requirements of the study protocol. Data are presented in the form of mean (standard deviation).
Subjects included in the study underwent an initial screening period beginning up to 12 weeks prior to the day of oocyte retrieval from the subject. During this 12-week period, subjects underwent physical and gynecological examination in preparation for oocyte retrieval. This analysis included a recordation of the subjects' vital signs, hematology and biochemistry analysis of blood samples withdrawn from the subjects, urinary analysis, and a comprehensive review of the subjects' medical histories.
At the conclusion of the screening period, subjects underwent controlled ovarian hyperstimulation by administration of a GnRH antagonist so as to prevent a premature rise in serum LH concentration. Concurrent pre-treatment with an oral contraceptive prior to controlled ovarian hyperstimulation was allowed, but not required. Final follicular maturation was performed with a single administration of hCG to the subject. Luteal support was performed by intravaginal administration of micronized natural progesterone at a dose of 600 mg (3×200 mg dosage forms) daily, commencing within 6-24 hours of oocyte retrieval. Progesterone administration continued for at least 6 weeks following embryo transfer for subjects testing positive for pregnancy at 14 days following embryo transfer. Retrieved oocytes contained at least 1-4 mature oocytes (i.e., ova), which were subsequently used for IVF or ICSI for embryo generation.
The embryo transfer procedure was conducted three days after the oocyte retrieval day (OPU+3 days). Subjects undergoing embryo transfer were monitored prior to initiating the procedure. This analysis included a recordation of vital signs, as well as a transvaginal ultrasound to assess uterine contraction rate and endometrial thickness. […] Eligible subjects subsequently underwent blood sample analysis to determine pre-treatment levels of serum E2 and P4.
From one to two embryos of good quality were transferred to each subject. To reduce uterine contractions at the time of embryo transfer, soft or ultra-soft catheters were used and contact with the uterine fundus was avoided. Any difficulties that occurred during the embryo transfer procedure were recorded, including instances in which uterine sounding or cervical dilation were required, instances in which a harder catheter was required, or instances in which blood was found in any part of the catheter.
Approximately 1 hour following embryo transfer, subjects underwent a final physical examination and were subsequently discharged from the clinical unit until the first follow-up visit, which occurred at about 14 days following oocyte retrieval (OPU+14 days). At this time, subjects underwent a physical examination as well as a blood sample analysis to assess pregnancy by detection of hCG. Subjects testing positive for pregnancy continued the study and were scheduled for follow-up examinations at about 6 weeks following embryo transfer and at about 10 weeks following oocyte retrieval (OPU+10 weeks). Subjects that returned for examination at about 6 weeks following embryo transfer underwent ultrasound analysis. […]

[2] = system: cytochrome P450 in combination with UGT; assay: microsomal stability, pooled liver microsomes, cytochrome P450 in combination with UGT; type: in vitro ADME; details: 45 minute experiment
Experimental: At five time points over the course of a 45 minute experiment, the compounds were analyzed by liquid chromatography and tandem mass spectrometry (LC-MS/MS). Intrinsic clearance values (CLint) with standard error (SE CLint) and metabolic half-life (t1/2) were calculated and are indicated in Table 9, below.

[3] = in vivo, cited from earlier work
human subjects = details: cited from earlier work
[4] = All P4 quartiles, 1 embryo transferred, 100 mg dose
[5] = All P4 quartiles, 1 embryo transferred, 300 mg dose
[6] = All P4 quartiles, 1 embryo transferred, 900 mg dose
[7] = All P4 quartiles, 1 embryo transferred, All doses
[8] = All P4 quartiles, 2 embryos transferred, 100 mg dose
[9] = All P4 quartiles, 2 embryos transferred, 300 mg dose
[10] = All P4 quartiles, 2 embryos transferred, 900 mg dose
[11] = All P4 quartiles, 2 embryos transferred, All doses
[12] = Excluding upper P4 quartile, 1 embryo transferred, 100 mg dose
[13] = Excluding upper P4 quartile, 1 embryo transferred, 300 mg dose
[14] = Excluding upper P4 quartile, 1 embryo transferred, 900 mg dose
[15] = Excluding upper P4 quartile, 1 embryo transferred, All doses
[16] = Excluding upper P4 quartile, 2 embryos transferred, 100 mg dose
[17] = Excluding upper P4 quartile, 2 embryos transferred, 300 mg dose
[18] = Excluding upper P4 quartile, 2 embryos transferred, 900 mg dose
[19] = Excluding upper P4 quartile, 2 embryos transferred, All doses
[20] = excluding subjects from pre-treatment serum P4 concentration Q4, 100 mg dose
[21] = excluding subjects from pre-treatment serum P4 concentration Q4, 300 mg dose
[22] = excluding subjects from pre-treatment serum P4 concentration Q4, 900 mg dose
[23] = excluding subjects from pre-treatment serum P4 concentration Q4, All doses

Structure (SMILES): CO/N=C1/C[C@@H](CO)N(C(=O)c2ccc(-c3ccccc3C)cc2)C1 [Compound (II), (3Z,5S)-5-(hydroxymethyl)-1-[(2′-methyl-1,1′-biphenyl-4-yl)carbonyl]pyrrolidin-3-one O-methyloxime]
- Live birth rate at a gestational age of at least 24 weeks [1, 4]: (33.33%)
- Live birth rate at a gestational age of at least 24 weeks, Frequency [1, 4]: 13/39
- Live birth rate at a gestational age of at least 24 weeks [1, 5]: (33.33%)
- Live birth rate at a gestational age of at least 24 weeks, Frequency [1, 5]: 12/36
- Live birth rate at a gestational age of at least 24 weeks [1, 6]: (40.00%)
- Live birth rate at a gestational age of at least 24 weeks, Frequency [1, 6]: 14/35
- Live birth rate at a gestational age of at least 24 weeks [1, 7]: (35.45%)
- Live birth rate at a gestational age of at least 24 weeks, Frequency [1, 7]: 39/110
- Live birth rate at a gestational age of at least 24 weeks [1, 8]: (52.17%)
- Live birth rate at a gestational age of at least 24 weeks, Frequency [1, 8]: 12/23
- Live birth rate at a gestational age of at least 24 weeks [1, 9]: (37.50%)
- Live birth rate at a gestational age of at least 24 weeks, Frequency [1, 9]: 9/24
- Live birth rate at a gestational age of at least 24 weeks [1, 10]: (50.00%)
- Live birth rate at a gestational age of at least 24 weeks, Frequency [1, 10]: 12/24
- Live birth rate at a gestational age of at least 24 weeks [1, 11]: (46.48%)
- Live birth rate at a gestational age of at least 24 weeks, Frequency [1, 11]: 33/71
- Live birth rate at a gestational age of at least 24 weeks [1, 12]: (32.35%)
- Live birth rate at a gestational age of at least 24 weeks, Frequency [1, 12]: 11/34
- Live birth rate at a gestational age of at least 24 weeks [1, 13]: (45.45%)
- Live birth rate at a gestational age of at least 24 weeks, Frequency [1, 13]: 10/22
- Live birth rate at a gestational age of at least 24 weeks [1, 14]: (44.83%)
- Live birth rate at a gestational age of at least 24 weeks, Frequency [1, 14]: 13/29
- Live birth rate at a gestational age of at least 24 weeks [1, 15]: (40.00%)
- Live birth rate at a gestational age of at least 24 weeks, Frequency [1, 15]: 34/85
- Live birth rate at a gestational age of at least 24 weeks [1, 16]: (50.00%)
- Live birth rate at a gestational age of at least 24 weeks, Frequency [1, 16]: 8/16
- Live birth rate at a gestational age of at least 24 weeks [1, 17]: (53.85%)
- Live birth rate at a gestational age of at least 24 weeks, Frequency [1, 17]: 7/13
- Live birth rate at a gestational age of at least 24 weeks [1, 18]: (60.00%)
- Live birth rate at a gestational age of at least 24 weeks, Frequency [1, 18]: 12/20
- Live birth rate at a gestational age of at least 24 weeks [1, 19]: (55.10%)
- Live birth rate at a gestational age of at least 24 weeks, Frequency [1, 19]: 27/49
- Live birth rate at gestational age of at least 24 weeks ([1]; all subjects, 100 mg dose): 40.3%
- Ongoing pregnancy rate at 6 weeks post embryo transfer ([1]; all subjects, 100 mg dose): 46.8%
- Ongoing pregnancy rate at 10 weeks post oocyte retrieval ([1]; all subjects, 100 mg dose): 43.5%
- Positive pregnancy test at 14 days post embryo transfer ([1]; all subjects, 100 mg dose): 56.5%
- Live birth rate at gestational age of at least 24 weeks ([1]; all subjects, 300 mg dose): 35.0%
- Ongoing pregnancy rate at 6 weeks post embryo transfer ([1]; all subjects, 300 mg dose): 35.0%
- Ongoing pregnancy rate at 10 weeks post oocyte retrieval ([1]; all subjects, 300 mg dose): 35.0%
- Positive pregnancy test at 14 days post embryo transfer ([1]; all subjects, 300 mg dose): 50.0%
- Live birth rate at gestational age of at least 24 weeks ([1]; all subjects, 900 mg dose): 43.3%
- Ongoing pregnancy rate at 6 weeks post embryo transfer ([1]; all subjects, 900 mg dose): 46.7%
- Ongoing pregnancy rate at 10 weeks post oocyte retrieval ([1]; all subjects, 900 mg dose): 45.0%
- Positive pregnancy test at 14 days post embryo transfer ([1]; all subjects, 900 mg dose): 53.3%
- Live birth rate at gestational age of at least 24 weeks ([1]; all subjects, All doses): 39.6%
- Ongoing pregnancy rate at 6 weeks post embryo transfer ([1]; all subjects, All doses): 42.9%
- Ongoing pregnancy rate at 10 weeks post oocyte retrieval ([1]; all subjects, All doses): 41.2%
- Absolute increase in live birth rate vs placebo [1, 20]: 7.4%
- Live birth rate at gestational age of at least 24 weeks [1, 20]: 38.0%
- Live birth rate at gestational age of at least 24 weeks, frequency [1, 20]: 19/50;
- Ongoing pregnancy rate at 6 weeks post embryo transfer [1, 20]: 44.0%
- Ongoing pregnancy rate at 10 weeks post oocyte retrieval [1, 20]: 42.0%
- Positive pregnancy test at 14 days post embryo transfer [1, 20]: 54.0%
- Absolute increase in live birth rate vs placebo [1, 21]: 18.0%
- Live birth rate at gestational age of at least 24 weeks [1, 21]: 48.6%
- Live birth rate at gestational age of at least 24 weeks, frequency [1, 21]: 17/35;
- Ongoing pregnancy rate at 6 weeks post embryo transfer [1, 21]: 48.6%
- Ongoing pregnancy rate at 10 weeks post oocyte retrieval [1, 21]: 48.6%
- Positive pregnancy test at 14 days post embryo transfer [1, 21]: 62.9%
- Absolute increase in live birth rate vs placebo [1, 22]: 20.4%
- Live birth rate at gestational age of at least 24 weeks [1, 22]: 51.0%
- Live birth rate at gestational age of at least 24 weeks, frequency [1, 22]: 25/49;
- Ongoing pregnancy rate at 6 weeks post embryo transfer [1, 22]: 53.1%
- Ongoing pregnancy rate at 10 weeks post oocyte retrieval [1, 22]: 51.0%
- Positive pregnancy test at 14 days post embryo transfer [1, 22]: 59.2%
- Absolute increase in live birth rate vs placebo [1, 23]: 14.9%
- Live birth rate at gestational age of at least 24 weeks [1, 23]: 45.5%
- Live birth rate at gestational age of at least 24 weeks, frequency [1, 23]: 61/134;
- Ongoing pregnancy rate at 6 weeks post embryo transfer [1, 23]: 48.5%
- Ongoing pregnancy rate at 10 weeks post oocyte retrieval [1, 23]: 47.0%
- microsomal CLint at 3 μM ([2]; read-out: CLint, Metabolic Stability - CYP/UGT): 9.33 µL/min/mg
- half-life at 3 μM ([2]; read-out: t1/2, Metabolic Stability - CYP/UGT): 2.48 h
- oral bioavailability ([3]; po): 42-100%
- serum half-life [3]: 11 to 12 h
- tmax [3]: 1 to 4 h
- safely tolerated dose (human subjects): up to 1500 mg

— patent publication US20190247361A1, “OXYTOCIN ANTAGONIST DOSING REGIMENS FOR PROMOTING EMBRYO IMPLANTATION AND PREVENTING MISCARRIAGE” (ObsEva S.A., priority 2016, published 2019)
